# Results: US20090074795A1, “Methods for addressing ocular diseases through interference with the wnt signaling pathway” (priority 2007, published 2009)
# Tests used:
# primary RCEC = test: HIF-1 activation and VEGF expression induced by LiCl in primary RCEC; assay type: cell-based, bovine; conditions: 50 mM LiCl, 24 hours
# Experimental: Blockade of the wnt pathway by DKK1 down-regulates VEGF and HIF-1 expression and reduces vascular leakage in the retina of diabetic rats. To activate the wnt pathway, primary RCEC were treated with 50 mM LiCl, a specific activator of the wnt pathway, in the presence or absence of 85 ng/ml DKK1, a specific inhibitor of the wnt pathway, or BSA for 24 hours. Hypoxia was used as a positive control for HIF-1 activation. The HIF-1 nuclear translocation, a key step in its activation, was measured by immunocytochemistry. Both LiCl and hypoxia increased nuclear levels of HIF-1α, indicating an increased nuclear translocation.
# According to embodiments of experimental data, RCEC were exposed to normoxia (FIG. 17A), hypoxia (1% O2) (FIG. 17B), 50 mM LiCl with BSA (FIG. 17C), or 50 mM LiCl plus 85 ng/ml DKK1 (FIG. 17D) for 24 hours. The nuclear translocation of HIF-1α was determined by immunocytochemistry with an antibody against HIF-1α. […] In FIG. 17E, the total levels of VEGF and HIF-1α were determined by western blot analysis with an antibody against HIF-1α or VEGF.
# [1] = test system: bovine retinal capillary endothelial cells (BRCEC); test: β-catenin activation by high glucose in BRCEC; assay type: cell-based; conditions: 30 mM glucose with 10 μM aminoguanidine, 24 h
# Experimental: To elucidate the mechanism for of the wnt pathway activation induced by high glucose, primary bovine retinal capillary endothelial cells (BRCEC) were treated with low glucose (5 mM glucose and 20 mM mannitol), high glucose (30 mM glucose), and high glucose together with a known anti-oxidant (30 mM glucose with 10 μM aminoguanidine) for 24 h. The nuclear levels of β-catenin were examined by immunocytochemistry using the antibody for β-catenin. […] The nuclear translocation of β-catenin induced by high glucose was blocked by aminoguanidine.
# According to embodiments of experimental data, cultured BRCEC were exposed to 5 mM glucose plus 20 mM mannitol as control (FIG. 12A), 30 mM glucose (FIG. 12B), and 30 mM glucose plus 10 μM aminoguanidine (AG) (FIG. 12C) for 24 hours. […] In FIG. 12D, protein levels of β-catenin were determined using western blot analysis, and normalized by β-actin levels. Each lane of FIG. 12D represents an individual culture dish.
SMILES,nuclear levels of HIF-1α (primary RCEC; immunocytochemistry),expression of HIF-1α (primary RCEC; western blot),expression of VEGF (primary RCEC; western blot),nuclear translocation of β-catenin induced by high glucose ([1]; immunocytochemistry),total levels of β-catenin increased by high glucose ([1]; western blot)
"[Cl-].[Li+] [LiCl, reference compound]",increased,up-regulated,up-regulated,–,–
N=C(N)NN [aminoguanidine],–,–,–,blocked,blocked
